Results on 15 molecules are retold here after patent US20050131028A1, “Methods and compositions for the extended duration treatment of pain, inflammation and inflammation-related disorders” (Pharmacia Corporation, priority 2003, published 2005).

Where “and” joins values, the source holds several entries; their conditions need not be identical. Equal values may be shown once. Read-outs that look alike come from different tables or passages of the source.

What is called IC50 is the concentration needed to halve the response being measured. Low values mean greater potency in that assay, high ones weaker potency in that assay.

Series [1] is described as follows: Canine cassette-dosed pharmacokinetics. Conditions: for half-life: beagle, dog, plasma, 2 mg/kg; for increase in plasma half-life in canines: versus 4-methylphenyl compound. Type of series: in vivo, canines (beagles).
Experimental: Cassette-dosing is a technique in which 2 or more compounds are simultaneously administered to an animal and the pharmacokinetics of each compound is monitored individually even though it is in the same animal/blood sample.
Cassette-dosing refers to the practice of dosing 2 or more compounds simultaneously to animals. […] Blood samples were collected over time intervals ranging from 0 to 50 days into EDTA tubes and plasma harvested. Plasma drug concentrations were then determined for each compound in the cassette by liquid chromatography-mass spectrometry methods. This process was repeated for each group of compounds (cassette) tested.
The nature of series [2]: Canine pharmacokinetics, compounds dosed individually. Type of series: in vivo, canines (beagles). The following applies: beagle, dog, plasma, oral 2 or 4 mg/kg, read-out: Canine t1/2 (converted).
Experimental: In this example, each compound was administered individually to canines (not cassette dosed). […] Plasma drug concentrations were then determined by liquid chromatography-mass spectrometry methods. This process was repeated for each compound tested.
Series [3] can be described thus: Rat pharmacokinetics, single oral dose, non-cassette. Type of series: in vivo. The following applies: for half-life: rat.
Experimental: All rat pharmacokinetics data is non-cassette dosed. Non-cassette dosed pharmacokinetics means that each compound was dosed individually (i.e. not part of a cassette of compounds). Cassette-dosing is a technique in which 2 or more compounds are simultaneously administered to an animal and the pharmacokinetics of each compound is monitored individually even though it is in the same animal/blood sample.
At each sample collection time, blood samples were collected from three rats by cardiac puncture and then processed into plasma. […] Plasma drug concentrations were then determined by liquid chromatography-mass spectrometry methods. The mean plasma concentrations from each of the three samples collected at each time point were then plotted as a function of time. This process was repeated for each compound tested.
For a further series, the target named is T1, hCOX-2 (Homo sapiens, UniProt P35354).
T1 sequence (P35354 18-604): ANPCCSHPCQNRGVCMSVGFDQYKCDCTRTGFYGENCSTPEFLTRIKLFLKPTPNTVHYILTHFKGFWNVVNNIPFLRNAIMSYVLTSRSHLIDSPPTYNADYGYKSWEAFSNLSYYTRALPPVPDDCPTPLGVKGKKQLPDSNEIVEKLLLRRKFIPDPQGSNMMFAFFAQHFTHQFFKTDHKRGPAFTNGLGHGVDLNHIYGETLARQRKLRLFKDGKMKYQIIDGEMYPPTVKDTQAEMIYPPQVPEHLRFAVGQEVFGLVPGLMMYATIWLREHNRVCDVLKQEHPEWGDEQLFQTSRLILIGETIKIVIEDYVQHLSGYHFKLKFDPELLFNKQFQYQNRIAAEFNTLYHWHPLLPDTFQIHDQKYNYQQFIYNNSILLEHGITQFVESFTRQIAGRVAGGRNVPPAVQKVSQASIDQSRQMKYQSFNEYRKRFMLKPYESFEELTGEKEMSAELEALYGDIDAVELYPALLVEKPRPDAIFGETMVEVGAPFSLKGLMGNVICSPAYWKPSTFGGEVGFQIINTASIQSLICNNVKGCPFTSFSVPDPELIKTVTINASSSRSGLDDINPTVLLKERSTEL
In words: hCOX-2 enzyme inhibition (IC50) and selectivity. Type of series: biochemical. The following applies: for hCOX selectivity hCOX-1/hCOX-2: Cox-1 IC50/Cox-2 IC50; for IC50: repeated experimental results listed separately.

The target of the next series is hCOX-1 (Homo sapiens, UniProt P23219). The experiment in a line: hCOX-1 enzyme inhibition (IC50). Type of series: biochemical. Conditions: repeated experimental results listed separately.
hCOX-1, sequence (P23219 24-599): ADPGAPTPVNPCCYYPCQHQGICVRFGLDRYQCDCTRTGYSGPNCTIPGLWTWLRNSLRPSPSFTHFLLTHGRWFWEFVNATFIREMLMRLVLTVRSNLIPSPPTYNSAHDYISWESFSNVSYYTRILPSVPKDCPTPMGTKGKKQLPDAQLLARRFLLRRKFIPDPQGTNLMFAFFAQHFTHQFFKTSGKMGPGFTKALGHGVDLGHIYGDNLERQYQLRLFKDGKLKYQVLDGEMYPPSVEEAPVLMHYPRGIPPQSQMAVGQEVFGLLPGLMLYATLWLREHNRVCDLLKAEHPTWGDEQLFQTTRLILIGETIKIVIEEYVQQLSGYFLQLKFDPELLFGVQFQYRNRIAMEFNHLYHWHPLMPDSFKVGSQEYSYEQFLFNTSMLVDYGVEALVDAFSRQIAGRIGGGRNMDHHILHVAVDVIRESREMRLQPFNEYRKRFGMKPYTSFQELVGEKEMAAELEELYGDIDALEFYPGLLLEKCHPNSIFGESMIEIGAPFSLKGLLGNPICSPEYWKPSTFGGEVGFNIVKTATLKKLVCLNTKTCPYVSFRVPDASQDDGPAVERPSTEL
Series [4] relates to adjuvant-induced arthritis in male Lewis rats. The experiment in a line: Adjuvant-induced arthritis in rat paws (paw volume). Type of series: in vivo. The following applies: single oral dose, 3 mg/kg (FIG. 2) / 3 mg/mL, followed 28 days. How it is done:
This experiment was performed following a modified method of Connor, J. et al. (European J. Pharmacology, 1995, 273:15-24). Briefly, arthritis was induced in pathogen-free, male Lewis rats by an intadermal injection of 20 mg/ml Mycobacterium butyricum suspended in squalene in three sites at the base of the tail. The injection of mycobacteria produces a systemic autoimmune response and subsequent chronic inflammation of the joints with many similarities to rheumatoid arthritis. The induced arthritis was allowed to develop for 14 days at which time animals were given a single oral dose of a Cox-2 selective inhibitor at […]. Effectiveness was assessed by the decrease in rat paw edema (paw volume) for 28 days following the Cox-2 inhibitor dose. Paw volume was determined using a water displacement plethysmometer. To gage the drug response, the paw volumes of rats treated with Cox-2 selective inhibitors were compared to normal healthy rats without induced arthritis and without drug (normal-control group) and rats with induced arthritis but without drug (adjuvant-control group).
All of the compounds tested in this model were effective for a minimum of 5 days.

The conditions of series [5]: cited from earlier work.
The mark [6] stands for this setting: po, oral 2 mg/kg each compound, cassette, read-out: Canine Cassette-dosed t1/2 (converted).
Where [7] appears, read: plasma, po, 2 mg/kg, plasma, oral 2 mg/kg, non-cassette dosed, read-out: Rat t1/2 (converted).

Experimental for hCOX-1: (§1) The specificity of a given extended duration Cox-2 inhibitor is measured by determining the IC50 or EC50 for each compound described above.
Experimental for hCOX-2: as §1

On to `NS(=O)(=O)c1ccc(-n2nc(C(F)(F)F)cc2-c2ccc(Cl)cc2Cl)cc1` [4-[5-(2,4-[dichlorophenyl)-3-(trifluoromethyl)-1H-pyrazol-1-yl]benzenesulfonamide], for which the half-life was approximately 771 h in series [1] (setting [6]), 466 h in series [2] and 97 h in series [3] (setting [7]).
For the molecule `NS(=O)(=O)c1ccc(-n2nc(C(F)(F)F)cc2-c2ccc(F)cc2F)cc1` [4-[5-(2,4-[difluorophenyl)-3-(trifluoromethyl)-1H-pyrazol-1-yl]benzenesulfonamide], the half-life in series [1] (setting [6]) is approximately 716 h; in series [2] it was 233 h; in series [3] (setting [7]), 25 h. In addition, the “hCOX selectivity hCOX-1/hCOX-2” value at hCOX-2 worked out at 393. The IC50 on hCOX-2 was 149 nM and 36 nM and < 137 nM; against hCOX-1, 38400 nM and 14000 nM and 22400 nM.
Take `NS(=O)(=O)c1ccc(-n2nc(C(F)(F)F)cc2-c2ccc(Cl)c(Cl)c2)cc1` [4-[5-(3,4-dichlorophenyl)-3-(trifluoromethyl)-1H-pyrazol-1-yl]benzenesulfonamide]: the half-life in series [1] (setting [6]) was approximately 830 h; in series [2] it was 762 h; in series [3] (setting [7]), 157 h. In series [4], the “effectiveness in minimizing rat paw volume over longer time periods” value is reported as “effective extended duration compounds”.
For `NS(=O)(=O)c1ccc(-n2nc(C(F)(F)F)cc2-c2ccc(F)c(F)c2)cc1` [4-[5-(3,4-difluorophenyl)-3-(trifluoromethyl)-1H-pyrazol-1-yl]benzenesulfonamide], the results for the half-life in series [1] (setting [6]), in series [2] and in series [3] (setting [7]) were approximately 881 h, 500 h and 59 h, respectively.
As to `COc1c(Cl)cc(-c2cc(C(F)(F)F)nn2-c2ccc(S(N)(=O)=O)cc2)cc1Cl` [4-[5-(3,5-dichloro-4-methoxyphenyl)-3-(trifluoromethyl)-1H-pyrazol-1-yl]benzenesulfonamide], the half-life in series [1] (setting [6]) was approximately 17 h. Further, the IC50 against hCOX-2 is 54.7 nM and 39 nM.
Consider `COc1ccc(-c2cc(C(F)(F)F)nn2-c2ccc(S(N)(=O)=O)cc2)cc1Cl` [4-[5-(3-chloro-4-methoxyphenyl)-3-(trifluoromethyl)-1H-pyrazol-1-yl]benzenesulfonamide], for which the half-life in series [1] (setting [6]) is approximately 22 h.
As to `Cc1ccc(-c2cc(C(F)(F)F)nn2-c2ccc(S(N)(=O)=O)cc2)cc1Cl` [4-[5-(3-chloro-4-methylphenyl)-3-(trifluoromethyl)-1H-pyrazol-1-yl]benzenesulfonamide], the figures for the half-life in series [1] (setting [6]) and in series [3] (setting [7]) were 17 h and 5.1 h, respectively. Moreover, the “hCOX selectivity hCOX-1/hCOX-2” value at hCOX-2 was determined as 2289. In addition, the IC50 was 24.9 nM and < 137 nM and 7 nM against hCOX-2; 57000 nM and 12500 nM and 14300 nM at hCOX-1.
Turning to `COc1cc(-c2cc(C(F)(F)F)nn2-c2ccc(S(N)(=O)=O)cc2)ccc1Br` [4-[5-(4-bromo-3-methoxyphenyl)-3-(trifluoromethyl)-1H-pyrazol-1-yl]benzenesulfonamide], on hCOX-2, the “hCOX selectivity hCOX-1/hCOX-2” value came out at 669; the IC50 was 45.3 nM and < 137 nM. Further, the half-life in series [2] is 71 h. In addition, the IC50 on hCOX-1 is 30300 nM and 35300 nM.
On to `Cc1cc(-c2cc(C(F)(F)F)nn2-c2ccc(S(N)(=O)=O)cc2)ccc1Cl` [4-[5-(4-chloro-3-methylphenyl)-3-(trifluoromethyl)-1H-pyrazol-1-yl]benzenesulfonamide], for which the half-life in series [1] (setting [6]) is approximately 44 h; in series [2], 12 h. Besides, the IC50 against hCOX-2 is less than 137 nM; against hCOX-1, 4920 nM.
As to `NS(=O)(=O)c1ccc(-n2nc(C(F)(F)F)cc2-c2ccc(Cl)cc2)cc1` [4-[5-(4-chlorophenyl)-3-(trifluoromethyl)-1H-pyrazol-1-yl]benzenesulfonamide], the half-life in series [1] (oral, cassette-dosed, single dosage, read-out: canine half-life (converted)) is approximately 1180 h; in series [1] (setting [6]), approximately 1190 h; in series [3] (plasma, oral, 2 mg/kg, single dosage administration, read-out: Rat half-life (converted)) it was 192 h; in series [3] (setting [7]), 193 h. The canine half-life in series [1] (cassette-dosed, single dosage) was not above 1180 h. In addition, the “increase in plasma half-life in canines” value in series [1] (fast metabolizing subtype) came out at 207 fold; in series [1] (slow metabolizing subtype), 691 fold. Moreover, the “duration of therapeutically effective blood concentration” value in series [1] (without increased or additional dosing) is “at least 24 hours”. Further, the Rat half-life in series [3] (single dosage administration) is not above 190 h.
With `NS(=O)(=O)c1ccc(-n2nc(C(F)(F)F)cc2-c2ccc(F)cc2)cc1` [4-[5-(4-fluorophenyl)-3-(trifluoromethyl)-1H-pyrazol-1-yl]benzenesulfonamide], the results for the half-life in series [1] (setting [6]), in series [2] and in series [3] (setting [7]) were 572 h, 289 h and 32 h, respectively.
For the molecule `COc1c(C)cc(-c2cc(C(F)(F)F)nn2-c2ccc(S(N)(=O)=O)cc2)cc1C` [4-[5-(4-methoxy-3,5-dimethylphenyl)-3-(trifluoromethyl)-1H-pyrazol-1-yl]benzenesulfonamide], in series [1] (setting [6]), the half-life was approximately 18 h. Moreover, the IC50 on hCOX-2 was 80 nM; against hCOX-1 it was more than 100000 nM.
Turning to `COc1ccc(-c2cc(C(F)(F)F)nn2-c2ccc(S(N)(=O)=O)cc2)cc1C` [4-[5-(4-methoxy-3-methylphenyl)-3-(trifluoromethyl)-1H-pyrazol-1-yl]benzenesulfonamide], in series [1] (setting [6]), the half-life was approximately 36 h.
With `COc1ccc(-c2cc(C(F)(F)F)nn2-c2ccc(S(N)(=O)=O)cc2)cc1` [4-[5-(4-methoxyphenyl)-3-(trifluoromethyl)-1H-pyrazol-1-yl]benzenesulfonamide], in series [1] (setting [6]), the half-life was approximately 21 h.
Turning to `Cc1ccc(-c2cc(C(F)(F)F)nn2-c2ccc(S(N)(=O)=O)cc2)cc1` [4-[5-(4-methylphenyl)-3-(trifluoromethyl)-1H-pyrazol-1-yl]benzenesulfonamide], the “Canine t1/2” value in series [5] (comparison data for the 4-methylphenyl compound) is 1.72 to 5.18 h. Further, the “effective half-life in canines” value in series [5] (fast metabolizing subtype (so in the source)) is 5.72 h; in series [5] (slow metabolizing subtype (so in the source)) it was 1.72 h. The half-life in series [3] (female, in vivo, female rats, non-cassette dosed, comparison data, read-out: Rat t1/2 in Female (converted)) was 14 h; in series [3] (male, in vivo, male rats, non-cassette dosed, comparison data, read-out: Rat t1/2 in Male (converted)), 3.73 h.
